{"source": "patent US20230017712A1", "about": "“SUSTAINED RELEASE DRUG DELIVERY DEVICE” (OAK CREST INSTITUTE OF SCIENCE, priority 2019, published 2023)", "key": {"[1]": {"details": "600 mg every 8 weeks, intramuscular; cited from earlier work"}, "[2]": {"system": "HIV", "details": "from non-human primate efficacy studies; cited from earlier work"}, "[3]": {"details": "paste 50% TAF / 50% PEG 400", "method": "Implants were fabricated using an ePTFE tubing skin (40 mm length, 2.0 mm I.D., 0.18 mm wall thickness) and a paste kernel composed of 50% TAF and 50% PEG 400 (w/w); the tube ends were sealed. In vitro release studies were carried out in 100 mL of release media (0.1% solutol HS 15 in 1×PBS) at 37° C. in an orbital shaking incubator at 125 RPM. Media was changed as required to keep TAF concentration at least 50-fold below saturation to maintain sink conditions."}, "[4]": {"system": "HIV", "details": "cited from earlier work"}, "[5]": {"system": "HIV", "details": "target 50 fmol TFV-DP per million PBMCs; cited from earlier work"}, "[6]": {"details": "kernel 70% TAF / 30% triethyl citrate", "method": "For both implant types, kernels consisted of 70% TAF and 30% triethyl citrate (w/w). Skins used custom tube extrusions of polyurethane [Pellethane® 2363-55DE (Lubrizol, Inc.); 25 mm length, 2.2 mm I.D., 0.13 mm wall thickness] and silicone [MED-4765 (Nusil, Inc.); 25 mm length, 2.1 mm I.D., 0.13 mm wall thickness]. The implant ends were sealed with MEDS-4213 (Nusil, Inc.) silicone adhesive. In vitro release studies were carried out in 100 mL of release media (0.5% solutol HS 15 in 1×PBS) at 37° C. in an orbital shaking incubator at 125 RPM. Media was changed as required to keep TAF concentration at least 50-fold below saturation to maintain sink conditions."}, "[7]": {"method": "The concentration of TAF in the release media was measured by UV-vis absorption spectroscopy (λmax 262 nm).", "remark": "listed apart in the source"}, "[8]": {"details": "TAF powder, no excipients, PBS, 37° C.", "method": "Segments (25 mm long) of the ePTFE tubes listed in TABLE 1 were cut, and approximately 3 mm of each end of the tube were prepared for sealing using FluoroEtch primer (Action Technologies, Pittston, Pa.) according to manufactures instructions. The tubes were then filled with tenofovir alafenamide (TAF) powder. No other excipients were used. The mass of TAF per implant varied between 20 and 70 mg depending on the experiment. The filled implants were sealed at both ends by placing a drop of Permabond 105 cyanoacrylate adhesive (Permabond Engineering Adhesives, Pottstown, Pa., USA) inside each end of the tube and crimping the end closed for 30 sec to allow the adhesive to cure and form a tight seal. Implants were kept at room temperature (ca. 23° C.) for 24 hours to allow the adhesive bond to reach full strength. The TAF in vitro release kinetics from the loaded implants was investigated by immersing the device in a solution consisting of phosphate buffered saline (PBS, 1×, 100 mL) containing sodium azide (0.01% w/v) at 37° C. with orbital shaking at 125 RPM for 30 days. The concentration of TAF in the release media was measured by UV-vis absorption spectroscopy (λmax 262 nm)."}, "[9]": {"details": "monoolein (MYVEROL 18-92K) paste, FIG. 30B", "method": "In vitro release studies were carried out in 100 mL of release media (0.1% solutol HS 15 in 1×PBS) at 37° C. in an orbital shaking incubator at 125 RPM. Media was changed as required to keep TAF concentration at least 50-fold below saturation to maintain sink conditions."}}, "note": "Where two headings read alike, the source gives them in different places."}
{"compound": "C[C@H]1CO[C@@H]2Cn3cc(C(=O)NCc4ccc(F)cc4F)c(=O)c(O)c3C(=O)N12", "note": "[CAB, Cabotegravir]", "values": [{"measurement": "participants with trough concentrations above 1× PA-IC90", "setting": "[1]", "value": "≥ 95", "unit": "%"}, {"measurement": "participants with trough concentrations above 4× PA-IC90", "setting": "[1]", "value": "≥ 80", "unit": "%"}, {"measurement": "steady state plasma concentration target, four times the protein adjusted IC90 (PA-IC90)", "setting": "[2]", "value": 0.66, "unit": "µg/mL"}]}
{"compound": "CC(C)OC(=O)[C@H](C)N[P@](=O)(CO[C@H](C)Cn1cnc2c(N)ncnc21)Oc1ccccc1", "note": "[TAF, Tenofovir alafenamide]", "values": [{"measurement": "TAF delivered linearly over 80 days", "setting": "blended with PEG 400", "value": "ca. 5 mg"}, {"measurement": "TAF delivered from the implants over the first month", "setting": "blended with TEC", "value": 60, "unit": "mg"}, {"measurement": "TAF delivered in less than the first day", "setting": "blended with TEC", "value": 5, "unit": "mg"}, {"measurement": "slope (release rate), simple linear regression", "setting": "paste TAF 77% w/w with PEG 400 23% w/w, ePTFE 0.84 g cm^−3, 40 mm implant", "value": 54.4, "unit": "µg/day"}, {"measurement": "TAF release rate", "setting": "[3]; ePTFE density 0.47 g cm^−3", "value": 0.51, "unit": "mg/day"}, {"measurement": "TAF release rate", "setting": "[3]; ePTFE density 0.84 g cm^−3", "value": 0.065, "unit": "mg/day"}, {"measurement": "release rate that could be protective", "setting": "[4]", "value": "ca. 0.3 mg d^−1"}, {"measurement": "linear subcutaneous release rate leading to protective TFV-DP PBMC concentrations", "setting": "[5]", "value": 0.5, "unit": "mg/day"}, {"measurement": "release rate, linear fit days 20-160", "setting": "[6]; polyurethane skin (Pellethane 2363-55DE)", "value": 0.079, "unit": "mg/day"}, {"measurement": "release rate, linear fit days 20-160", "setting": "[6]; silicone skin (MED-4765)", "value": 0.035, "unit": "mg/day"}, {"measurement": "release behaviour of coated sponges", "setting": "[7]; PDMS sponges coated with DL-PLA, L-PLA or PCL", "value": "controlled and tuned over 15 d"}, {"measurement": "time for drug release from TAF-impregnated sponges", "setting": "[7]; no polymer coating applied", "value": "under 1 d"}, {"measurement": "daily release rate (slope of linear regression, best fit value±SE)", "setting": "[8]; ePTFE tube density 0.34 g cm^−3", "value": "1.22 ± 0.023", "unit": "mg/day"}, {"measurement": "daily release rate (slope of linear regression, best fit value±SE)", "setting": "[8]; ePTFE tube density 0.47 g cm^−3", "value": "0.40 ± 0.0087", "unit": "mg/day"}, {"measurement": "daily release rate (slope of linear regression, best fit value±SE)", "setting": "[8]; ePTFE tube density 0.84 g cm^−3", "value": "0.58 ± 0.0089", "unit": "mg/day"}, {"measurement": "daily release rate (slope of linear regression, best fit value±SE)", "setting": "[8]; ePTFE tube density 1.13 g cm^−3", "value": "0.12 ± 0.0037", "unit": "mg/day"}, {"measurement": "effect of monoolein paste on release kinetics through ePTFE tubes relative to other hydrophobic oils", "setting": "[9]", "value": "increasing the rate of drug release"}]}
